“Also recorded” adds a separate entry of the source.
Legend:
[1] = Lymph flow imaging after intradermal peri-tail injection; type: in vivo, CD-1 mice; settings: until 15 minutes post injection, ICG at 800 nm, FIG. 4
Procedure: The same procedure was used using intradermal peri-tail injections to visual lymph flow until 15 minutes post injection at which point the animal was sacrificed. […] The arrow with the circle indicates the first-tier node.

[2] = Biodistribution and clearance 4 hours after intravenous injection; type: in vivo, CD-1 mice; settings: 4 hours post iv injection
Procedure: (§1) All foot pad injections and intravenous injections were 10 μL of each of these 500 μM concentrations for a total of 5 nmol per injection.
In order to show the biodistribution benefits of ICB, the same procedure was used using intravenous injections. After 4 hours animals were sacrificed, and the target tissue and other major organs including heart, lung, liver, spleen, pancreas, kidneys, duodenum, intestine, and muscle were resected to quantify biodistribution and clearance. A biodistribution analysis of all three dyes at 4 hours post iv injection.

[3] = SLN imaging after footpad injection, NIR fluorescence imaging; type: in vivo, CD-1 mice
Text: Neae Infrared fluorescence imaging can be achieved using a number of commercially available imaging systes. For example, the dual-NIR channel FLARE imaging system has been described in detail. It provides simultaneous illumination with white light (400-650 nm) at 40,000 lx, 660 nm NIR Channel 1 excitation at 4 mW/cm^2 and […] NIR Channel 2 excitation at 10 mW/cm^2. Color and two independent NIR fluorescence emission images (≈700 nm for Channel 1 and ≈800 nm for Channel 2) were acquired simultaneously with custom software at rates up to 15 Hz over a 15 cm diameter field of view. NIR fluorescence from Channel 1 was pseudo-colored in red and NIR fluorescence from Channel 2 was pseudo-colored in lime green prior to merger with the color video image. The imaging system was positioned at a distance of 18 inches from the surgical field.
as §1
Sentinel lymph nodes were observed a near infrared (NIR) imaging system.
The target tissue was exposed and the SLN was imaged for NIR fluorescence using dual channels [Channel 1 (700 nm) and Channel 2 (800 nm)] of a NIR imaging system.

[4] = Solubility measurement; type: physicochemical
Procedure: However, the contrast agent is soluble in mixtures of water and ethanol. […] After mixing for an extended period, the solutions were filtered using a 0.45 um spin filter. The solvent of known volumes was then removed by evaporation and solubility was determined by measuring the remaining solids in the pre-measured evaporating flask.

| signal in the large intestine ([2]; 5 nmol) | signal in the stomach ([2]; 5 nmol) | liver (hepatic) clearance observed by the imaging ([3]; footpad injection, CD-1 mice) | route of clearance [2] | signal in the kidneys ([2]; 5 nmol) | solubility ([4]; D5W) | solubility ([4]; water) | Compound | LN skipping [1] | leakage / flow through from sentinel lymph nodes ([3]; 5 nmol footpad injection, CD-1 mice) | first-tier/second-tier signal-to-background ratio ([3]; 15 minutes post-injection, 5 nmol footpad injection, CD-1 mice) | brightness of visualization ([3]; compared to SLN700, 700 nm) |
| --- | --- | --- | --- | --- | --- | --- | --- | --- | --- | --- | --- |
| enhanced signal | to lesser extent |  |  |  |  |  | CC1(C)C(/C=C/C=C/C=C/C=C2\N(CCCCS(=O)(=O)O)c3ccc4ccccc4c3C2(C)C)=[N+](CCCCS(=O)(=O)[O-])c2ccc3ccccc3c21 [ICG, indocyanine green, reference compound] | significant LN skipping |  |  |  |
| enhanced signal | to lesser extent | Visible liver (hepatic) clearance | completely cleared by the liver | Minimal signal | at least 10 mg/mL | at least 10 mg/mL | 4-[(2Z)-2-[(2E,4E)-5-[3,3-dimethyl-1-(4-sulfobutyl) indol-1-ium-2-yl]penta-2,4-dienylidene]-3,3-dimethylindol-1-yl]butane-1-sulfonic acid [ICB] |  | considerably less leakage over ICG or SLN700; also recorded: little to no significant flow through | 5.4±1.6 | brighter |

From patent US20250049962A1, “NEAR-INFRARED FLUORESCENT CONTRAST BIOIMAGING AGENTS FOR IMAGING OF SENTINEL LYMPH NODES” (Curadel Surgical Innovations, Inc., priority 2021, published 2025)
